Data published in patent US9018142B2, “Oil-field biocide method utilizing a peracid” (PeroxyChem LLC, priority 2008, dated 2015).

Legend:
[1] = test system: Desulfotomaculum nigrificans (ATCC 19858); experiment: D. nigrificans growth after biocide exposure in 0.1 wt % polyacrylamide; format: cell-based; set-up: key to D. nigrificans Growth Results / D. nigrificans Growth Results, Neutral Control: positive (+); negative (NEG)
Protocol: Example 2 illustrates the biocidal efficacy of peracetic acid, compared with glutaraldehyde, against another strain of sulfur-reducing bacteria, Desulfotomaculum nigrificans, present in an aqueous solution also containing 0.1 wt % polyacrylamide polymer. A range of peracetic acid and glutaraldehyde concentrations were evaluated for biocidal efficacy: 1, 5, 10, 25, 50, 75, 100, 200 and 300 ppm peracetic acid and the same concentrations for glutaraldehyde (except that 300 ppm was omitted).
The dilute aqueous polyacrylamide was prepared using an aqueous 50 wt % polyacrylamide solution (Sigma-Aldrich, St. Louis, Mo.) and diluting the polyacrylamide with deionized water to obtain 0.1 wt % polyacrylamide in water. The peracetic acid was Vigor Ox® SP-15 antimicrobial agent, containing about 15-17 wt % peracetic acid, 9-11 wt % hydrogen peroxide and 33-38 wt % acetic acid in water (FMC Corporation, Philadelphia, Pa.), and this peracetic acid solution was diluted to the desired concentration within the range 1 to 300 ppm peracetic acid for the various evaluations. The glutaraldehyde used in this Example 2 was a 50 wt % glutaraldehyde solution in water (Alfa Aesar, Ward Hill, Mass.), diluted with deionized water to the desired concentration within the range 1 to 200 ppm for the evaluations.
The bacterial strain used in this Example 2 was the sulfur-reducing bacterium Desulfotomaculum nigrificans (ATCC 19858 from American Type Culture Collection, Manassas, Va.). A working inoculum for each of the three studies described below was prepared by the following procedure. Baar's medium for sulfate reducers was inoculated with D. nigrificans from a cryogenic tube, grown at 50° C. anaerobically for a period sufficient to observe good growth of the culture (evident by blackening of the tube), between 2-7 days. This D. nigrificans culture was used as the working inoculum for each of the studies described below.
The methodology used in this Example 2 was as follows. A sterilized screw-cap tube containing 9.5-10 ml 0.1 wt % polyacrylamide was dosed with an appropriate amount of peracetic acid (or glutaraldehyde) to provide the desired peracetic acid (or glutaraldehyde) concentration (e.g., 1 to 300 ppm peracetic acid) in 10 ml 0.1 wt % polyacrylamide required for the study. The tubes were then vortex mixed and 0.1 ml D. nigrificans inoculum was added and again vortex mixed. The initial inoculation level was estimated as about 2.6×10^6 CFU/tube. Timing of the exposure period (e.g., 1 minute to 1 day) was begun when the D. nigrificans inoculum was added.
After the exposure period had elapsed, 1 ml of the treated mixture was added to a second tube containing 9 ml of Dey-Engley (D/E) neutralizing broth and vortex mixed. After about 5-8 minutes had elapsed, 1 ml of the neutralized solution was added to yet another tube containing 9 ml of Baar's modified medium for sulfate reducers. This tube was vortex mixed and then incubated anaerobically at 50° C., with the screw cap loosened, using an AnaeroPack (Mitsubishi Gas Chemical America, Inc., New York, N.Y.) in an anaerobic jar.
Growth controls were also carried out in the studies of this Example 2, using the following procedure. A screw-cap tube containing 10 ml of 0.1 wt % polyacrylamide was inoculated with 0.1 ml of D. nigrificans culture and then diluted in D/E neutralizing broth after the exposure period, vortex mixed, and then diluted in Baar's medium as described above. The control tubes were incubated at 50° C., also as described above, and monitored for growth after two days.
Neutralizing controls were also carried out for the peracetic acid and glutaraldehyde treatment agents to confirm that D/E neutralizing broth (which contains sodium bisulfite and […] among its neutralizing agents) was capable of neutralizing either peracetic acid or glutaraldehyde at the highest concentration used in each study. […]

[2] = test system: Desulfovibrio desulfuricans (vulgaris) (ATCC 7757); experiment: Biocidal efficacy against sulfur-reducing bacteria in 0.1 wt % polyacrylamide (colony population analysis, CFU); format: cell-based; conditions: not a side-by-side comparative study
Protocol: Example 1 illustrates the biocidal efficacy of peracetic acid, compared with glutaraldehyde, against a strain of sulfur-reducing bacteria, Desulfovibrio desulfuricans (vulgaris), present in an aqueous solution also containing 0.1 wt % polyacrylamide polymer. A range of peracetic acid and glutaraldehyde concentrations were evaluated for biocidal efficacy: 5, 10, 30, 150 and 300 ppm peracetic acid and 25 and 500 ppm glutaraldehyde.
The dilute aqueous polyacrylamide was prepared using a 50 wt % polyacrylamide solution in water, with the polyacrylamide having an average molecular weight ˜10,000 (Aldrich No. 434949, Sigma-Aldrich, St. Louis, Mo.). The peracetic acid was Vigor Ox® SP-15 antimicrobial agent, containing about 15-17 wt % peracetic acid, 9-11 wt % hydrogen peroxide and 33-38 wt % acetic acid in water (FMC Corporation, Philadelphia, Pa.), and this peracetic acid solution was diluted to 5, 10, 30, 150 and 300 ppm peracetic acid for the various evaluations. The glutaraldehyde used in this Example 1 was a 25 wt % glutaraldehyde solution in water (Sigma-Aldrich No. G4004, Sigma-Aldrich, St. Louis, Mo.), diluted to either 25 or 500 ppm for the evaluations. […]
Peracetic acid and glutaraldehyde were next evaluated for biocidal efficacy against the sulfur-reducing bacterium Desulfovibrio vulgaris. […]

[3] = at 25° C.; cited from earlier work
[4] = first study, 1 ppm, 1 minute exposure
[5] = first study, 1 ppm, 1 hour exposure
[6] = first study, 1 ppm, 1 day exposure
[7] = first study, 5 ppm, 1 minute exposure
[8] = first study, 5 ppm, 1 hour exposure
[9] = first study, 5 ppm, 1 day exposure
[10] = first study, 10 ppm, 1 minute exposure
[11] = first study, 10 ppm, 1 hour exposure
[12] = first study, 10 ppm, 1 day exposure
[13] = first study, 25 ppm, 1 minute exposure
[14] = first study, 25 ppm, 1 hour exposure
[15] = first study, 25 ppm, 1 day exposure
[16] = first study, 50 ppm biocide neutralized in D/E neutralizing broth before inoculation
[17] = first study, 50 ppm, 1 minute exposure
[18] = first study, 50 ppm, 1 hour exposure
[19] = first study, 50 ppm, 1 day exposure
[20] = second study, 50 ppm, 10 minutes exposure
[21] = second study, 50 ppm, 1 hour exposure
[22] = second study, 50 ppm, 1 day exposure
[23] = second study, 75 ppm, 10 minutes exposure
[24] = second study, 75 ppm, 1 hour exposure
[25] = second study, 75 ppm, 1 day exposure
[26] = second study, 100 ppm, 10 minutes exposure
[27] = second study, 100 ppm, 1 hour exposure
[28] = second study, 100 ppm, 1 day exposure
[29] = second study, 200 ppm biocide neutralized in D/E neutralizing broth before inoculation
[30] = second study, 200 ppm, 10 minutes exposure
[31] = second study, 200 ppm, 1 hour exposure
[32] = second study, 200 ppm, 1 day exposure

O=CCCCC=O [Glutaraldehyde, glutaraldehyde, reference compound]
D. nigrificans Growth Results [1, 4]: + | D. nigrificans Growth Results [1, 5]: + | D. nigrificans Growth Results [1, 6]: + | D. nigrificans Growth Results [1, 7]: + | D. nigrificans Growth Results [1, 8]: + | D. nigrificans Growth Results [1, 9]: + | D. nigrificans Growth Results [1, 10]: + | D. nigrificans Growth Results [1, 11]: + | D. nigrificans Growth Results [1, 12]: + | D. nigrificans Growth Results [1, 13]: + | D. nigrificans Growth Results [1, 14]: + | D. nigrificans Growth Results [1, 15]: + | D. nigrificans Growth Results, Neutral Control [1, 16]: + | D. nigrificans Growth Results [1, 17]: + | D. nigrificans Growth Results [1, 18]: + | D. nigrificans Growth Results [1, 19]: + | biocidal control of D. nigrificans ([1]; first study, any of the concentrations (1 to 50 ppm) or exposure times (1 minute, 1 hour, 1 day)): no biocidal control | D. nigrificans Growth Results [1, 20]: + | D. nigrificans Growth Results [1, 21]: + | D. nigrificans Growth Results [1, 22]: + | D. nigrificans Growth Results [1, 23]: + | D. nigrificans Growth Results [1, 24]: + | D. nigrificans Growth Results [1, 25]: + | D. nigrificans Growth Results [1, 26]: + | D. nigrificans Growth Results [1, 27]: + | D. nigrificans Growth Results [1, 28]: + | D. nigrificans Growth Results, Neutral Control [1, 29]: + | D. nigrificans Growth Results [1, 30]: + | D. nigrificans Growth Results [1, 31]: + | D. nigrificans Growth Results [1, 32]: + | biocidal control of D. nigrificans ([1]; second study, any of the concentrations (50 to 200 ppm) or exposure times (10 minutes, 1 hour, 1 day)): no biocidal control

Peracetic acid
biocidal efficacy against D. vulgaris compared with the glutaraldehyde treatment [2]: at least equivalent in performance | biocidal control of D. nigrificans ([1]; first study, 1 ppm, 5 ppm or 10 ppm, any of the exposure times): no biocidal control | D. nigrificans Growth Results [1, 4]: + | D. nigrificans Growth Results [1, 5]: + | D. nigrificans Growth Results [1, 6]: + | D. nigrificans Growth Results [1, 7]: + | D. nigrificans Growth Results [1, 8]: + | D. nigrificans Growth Results [1, 9]: + | D. nigrificans Growth Results [1, 10]: + | D. nigrificans Growth Results [1, 11]: + | D. nigrificans Growth Results [1, 12]: + | biocidal control of D. nigrificans ([1]; first study, 25 ppm and 50 ppm, 1 day exposure): provided biocidal control | D. nigrificans Growth Results [1, 13]: + | D. nigrificans Growth Results [1, 14]: + | D. nigrificans Growth Results [1, 15]: NEG | D. nigrificans Growth Results, Neutral Control [1, 16]: + | D. nigrificans Growth Results [1, 17]: + | D. nigrificans Growth Results [1, 18]: NEG and + | D. nigrificans Growth Results [1, 19]: NEG | biocidal activity against D. nigrificans ([1]; first study, 50 ppm, one hour, NEG for one of the two replicates): some biocidal activity | biocidal control of D. nigrificans ([1]; second study, 50, 75, 100 and 200 ppm, 1 day exposure): provided biocidal control | D. nigrificans Growth Results [1, 20]: + | D. nigrificans Growth Results [1, 21]: + | D. nigrificans Growth Results [1, 22]: NEG | D. nigrificans Growth Results [1, 23]: + | D. nigrificans Growth Results [1, 24]: NEG | D. nigrificans Growth Results [1, 25]: NEG | D. nigrificans Growth Results [1, 26]: + | D. nigrificans Growth Results [1, 27]: NEG and + | D. nigrificans Growth Results [1, 28]: NEG | D. nigrificans Growth Results, Neutral Control [1, 29]: + | D. nigrificans Growth Results [1, 30]: + | D. nigrificans Growth Results [1, 31]: NEG | D. nigrificans Growth Results [1, 32]: NEG | biocidal activity against D. nigrificans ([1]; second study, 10 minutes exposure, any of the concentrations): no biocidal activity | biocidal activity against D. nigrificans ([1]; second study, 1 hour exposure, 75 ppm, 100 ppm (1 of 2 replicates), 200 ppm): demonstrated biocidal activity | D. nigrificans Growth Results ([1]; third study, 100 ppm, 10 minutes exposure): + | D. nigrificans Growth Results ([1]; third study, 100 ppm, 30 minutes exposure): + and NEG | D. nigrificans Growth Results ([1]; third study, 100 ppm, 60 minutes exposure): NEG and + | D. nigrificans Growth Results ([1]; third study, 200 ppm, 10 minutes exposure): + | D. nigrificans Growth Results ([1]; third study, 200 ppm, 30 minutes exposure): NEG | D. nigrificans Growth Results ([1]; third study, 200 ppm, 60 minutes exposure): NEG | D. nigrificans Growth Results, Neutral Control ([1]; third study, 300 ppm peracetic acid neutralized in D/E neutralizing broth before inoculation): + | D. nigrificans Growth Results ([1]; third study, 300 ppm, 10 minutes exposure): NEG | D. nigrificans Growth Results ([1]; third study, 300 ppm, 30 minutes exposure): NEG | D. nigrificans Growth Results ([1]; third study, 300 ppm, 60 minutes exposure): NEG and + | biocidal activity against D. nigrificans ([1]; third study, 30 minutes, 100 ppm (2 of 3 replicates), 200 ppm, 300 ppm): demonstrated biocidal activity | biocidal control of D. nigrificans ([1]; third study, 60 minutes, 100 ppm (2 of 3 replicates), 200 ppm, 300 ppm (2 of 3 replicates)): provided biocidal control | biocidal activity against D. nigrificans ([1]; third study, ten minutes, 100 and 200 ppm): did not exhibit biocidal activity | biocidal control of D. nigrificans ([1]; third study, ten minutes, 300 ppm): exhibited biocidal control | pKa [3]: about 8.2
